In PMC13010326, “Fragment-Based Development of NSP14 Exonuclease Inhibitors Confounded by Batch-to-Batch Variability” (ACS Chemical Biology, 2026):
Where two headings read alike, the source gives them in different places.

Tests used:
NSP14 ExoN [1] = target: T1, NSP14 ExoN (Severe acute respiratory syndrome coronavirus 2, UniProt P0DTD1); experiment: biochemical
NSP14 = NSP14 (Severe acute respiratory syndrome coronavirus 2, UniProt P0DTD1); experiment: NSP14 DSF thermal shift assay; type: binding, SARS-CoV-2; conditions: 1 mM compound
Procedure: In technical triplicate, NSP14 (0.15 mg mL^–1) was prepared in 20 mM HEPES pH 7.5, 200 mM NaCl, 1 mM TCEP, and 2 mM MgCl2 and mixed with 1 mM compound or 2% DMSO. Samples were rested for 10 min and then mixed with SYPRO Orange (3× concentration, Invitrogen No. S6650). Raw melting curves (25–99 °C, 0.05 °C C/s, 20 μL volume) were collected on a QuantStudio 3 (Applied Biosystems) and each replicate well was individually normalized from 0 to 100 prior to averaging.

substrate dsRNA = experiment: Thiazole orange dsRNA intercalation (competition) counter-screen; type: binding; conditions: final 0.5% DMSO
Procedure: RNase T1 inhibition assay and thiazole orange RNA intercalation counter-screening assays were conducted essentially as previously reported. The TR-FRET ExoN activity assay dsRNA substrate and Assay Buffer were used for the intercalation assay and mixed with compounds in a final 0.5% DMSO.

NSP14 ExoN [2] = target: T1, NSP14 ExoN; design: method as in not given; conditions: small biochemical screens; promiscuous compounds; ref not given; cited from earlier work
[3] = original (first) compound batches, read-out: pIC50, inhibition of NSP14 ExoN in biochemical activity assay (converted)
[4] = resynthesized, more stringently purified second batch
[5] = biochemically active (first) batch

Cc1cc(N2CCNCC2)nc(C)n1 [Compound 1, reference compound]
IC50 (NSP14 ExoN [1]; [3]): 398 µM

Cc1csc(CNC(=O)c2cc[nH]n2)n1 [Compound 2, reference compound]
IC50 (NSP14 ExoN [1]; [3]): > 501 µM

CC(C)c1csc(CNC(=O)c2cc[nH]n2)n1 [Compound 3]
IC50 (NSP14 ExoN [1]; [3]): 2.51 µM | Activity of second batches against NSP14 ExoN (NSP14 ExoN [1]; [4]): inactive | NSP14 destabilization by differential scanning fluorimetry (DSF) (NSP14; [5]): evidence of NSP14 destabilization | NSP14 destabilization by differential scanning fluorimetry (DSF) (NSP14; biochemically inactive second batch): did not

C#Cc1nc(CNC(=O)c2cc[nH]n2)cs1 [Compound 4]
IC50 (NSP14 ExoN [1]; original (first) batch, n = 5, read-out: IC50, inhibition of NSP14 ExoN in biochemical activity assay (as printed in text for 4) (converted)): 158 µM

C=Cc1csc(CNC(=O)c2cc[nH]n2)n1 [Compound 5]
IC50 (NSP14 ExoN [1]; [3]): 251 µM

O=C(NCc1nc(C2CC2)cs1)c1cc[nH]n1 [Compound 6]
IC50 (NSP14 ExoN [1]; [3]): 50.1 µM | Activity of second batches against NSP14 ExoN (NSP14 ExoN [1]; [4]): inactive

O=C(NCc1nc(C2CC2)cs1)c1cc(CNCC2CC2)[nH]n1 [Compound 12, 5-(((Cyclopropylmethyl)amino)methyl)-N-((4-cyclopropylthiazol-2-yl)methyl)-1H-pyrazole-3-carboxamide]
Activity of second batches against NSP14 ExoN (NSP14 ExoN [1]): inactive | Binding to substrate dsRNA by thiazole orange competition assay (substrate dsRNA): neither bound to substrate dsRNA | NSP14 destabilization by differential scanning fluorimetry (DSF) (NSP14; [5]): evidence of NSP14 destabilization

CC(=O)NCc1cc(C(=O)NCc2nc(C3CC3)cs2)n[nH]1 [Compound 13]
Activity of second batches against NSP14 ExoN (NSP14 ExoN [1]): inactive | Binding to substrate dsRNA by thiazole orange competition assay (substrate dsRNA): neither bound to substrate dsRNA | NSP14 destabilization by differential scanning fluorimetry (DSF) (NSP14; [5]): evidence of NSP14 destabilization

O=C(NCc1nc(C2CC2)cs1)c1n[nH]c2ncccc12 [Compound 14]
IC50 (NSP14 ExoN [1]; [3]): 158 µM

CC(=O)NCc1cc(C(=O)NCc2nc(C(C)C)cs2)n[nH]1 [Compound 15]
IC50 (NSP14 ExoN [1]; [3]): > 501 µM

CC(C)c1csc(CNC(=O)c2cc(CNCC3CC3)[nH]n2)n1 [Compound 16]
IC50 (NSP14 ExoN [1]; [3]): > 501 µM

O=C(O)C1=CC(=C(c2ccc(O)c(C(=O)O)c2)c2ccc(O)c(C(=O)O)c2)C=CC1=O [aurintricarboxylic acid]
Inhibition of NSP14 ExoN (in words) (NSP14 ExoN [2]): can inhibit NSP14 ExoN

O=c1c2ccccc2[se]n1-c1ccccc1 [ebselen]
Inhibition of NSP14 ExoN (in words) (NSP14 ExoN [2]): can inhibit NSP14 ExoN

O=C1C=C2C(=CCOC2O)O1 (centres unmarked) [patulin]
Inhibition of NSP14 ExoN (in words) (NSP14 ExoN [2]): can inhibit NSP14 ExoN

CC(C)=CCOc1ccc(/C=C/C(=O)c2ccc(OCC=C(C)C)cc2OCC(=O)O)cc1 [sofalcone]
Inhibition of NSP14 ExoN (in words) (NSP14 ExoN [2]): can inhibit NSP14 ExoN
